Experimental findings from ChEMBL document CHEMBL1201862, “PubChem BioAssay data set” (2004) are described below.

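48-hour exposure; five concentrations; linearly interpolated endpoints. Abbreviation: GI50, concentration required for 50% inhibition of growth.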 The source made the active and inactive calls. Rule as the data show it: active = GI50 up to about 1.1 µM and inactive = higher.

Some test systems named below: UACC-62; EKVX; SW-620; IGROV-1; RXF 393; HOP-62; UACC-257; DU-145; HL-60; OVCAR-4; Malme-3M; LOX IMVI; OVCAR-3; NCI-H460; M14; COLO 205; SF-295; SK-MEL-28; MDA-N; MDA-MB-231.
Common to all, as to experiment: NCI tumour cell line growth inhibition, 48 h

In the case of `Cn1cc(NC(=O)c2cc(NC(=O)CNC(=N)N)cn2C)cc1C(=O)NCCC(=N)N` [NETROPSIN CHLORIDE], the GI50 with UACC-62, in the assay on EKVX, with SW-620, in the assay with IGROV-1, in the assay on RXF 393 and in the assay on HOP-62 was > 100 µM (inactive) in each case. In addition, the GI50 in the assay on UACC-257 is > 100 µM (inactive); with DU-145, > 100 µM (inactive); in the assay with HL-60 it was > 100 µM (inactive); with OVCAR-4 it was > 100 µM (inactive); in the assay with Malme-3M, 41.7 µM (inactive); in the assay with LOX IMVI it was > 100 µM (inactive). In addition, the GI50 in the assay on OVCAR-3, in the assay with NCI-H460, in the assay on M14, in the assay on COLO 205, with SF-295 and with SK-MEL-28 was > 100 µM (inactive) throughout. Moreover, in the assay on MDA-N, the GI50 was > 100 µM (inactive).

For the molecule `Cc1nn(C(=O)c2ccccc2O)c2c1C(c1ccc3ccccc3c1O)SC(=N)N2` (stereo unspecified), the GI50 in the assay with UACC-62 is 1.77 µM (inactive); in the assay on EKVX, 9.79 µM (inactive); in the assay on MDA-MB-231, 3.05 µM (inactive); with SW-620, 4.61 µM (inactive); in the assay on IGROV-1, 3.61 µM (inactive); with RXF 393 it was 6.56 µM (inactive). Moreover, the GI50 is 4.26 µM (inactive) in the assay on HOP-62; 3.53 µM (inactive) with UACC-257; 5.13 µM (inactive) in the assay on OVCAR-4; > 10 µM (inactive) with Malme-3M; 3.75 µM (inactive) in the assay with LOX IMVI; 2.69 µM (inactive) with OVCAR-3. The GI50 in the assay on NCI-H460 is 5.53 µM (inactive); with M14, 6.21 µM (inactive); with COLO 205, 2.4 µM (inactive); in the assay on SF-295, > 10 µM (inactive); with SK-MEL-28, 5.16 µM (inactive); in the assay on MDA-N, 3.44 µM (inactive).

Take `CC(=O)N1c2ccccc2C2=NN(C)C(=N)SC21` (stereo unspecified): the GI50 with EKVX, in the assay with MDA-MB-231, with SW-620, in the assay with HOP-62, in the assay with UACC-257 and with DU-145 was > 100 µM (inactive) throughout. Also, the GI50 is 89.5 µM (inactive) in the assay on HL-60; > 100 µM (inactive) in the assay on OVCAR-4; 68.4 µM (inactive) with Malme-3M; > 100 µM (inactive) in the assay on LOX IMVI; 13.8 µM (inactive) in the assay with OVCAR-3; > 100 µM (inactive) with NCI-H460. In addition, the GI50 with M14 was > 100 µM (inactive); with COLO 205 it was > 100 µM (inactive); in the assay on SF-295 it was 50.4 µM (inactive); in the assay on SK-MEL-28, > 100 µM (inactive); in the assay on MDA-N, > 100 µM (inactive).

Consider `CCCCCCc1cc2cc(C(=O)Nc3cccc(F)c3)c(=N)oc2cc1O`, for which the GI50 in the assay with UACC-62 is 1.94 µM (inactive); in the assay on EKVX, 2.34 µM (inactive); in the assay on SW-620 it was 3.39 µM (inactive); in the assay with IGROV-1 it was 1.42 µM (inactive); in the assay with HOP-62 it was 4.57 µM (inactive); in the assay with UACC-257, 2.99 µM (inactive). The GI50 is 3.56 µM (inactive) with DU-145; 2.36 µM (inactive) in the assay on HL-60; 2.78 µM (inactive) in the assay with OVCAR-4; 2.31 µM (inactive) with Malme-3M; 1.67 µM (inactive) with LOX IMVI; 4.19 µM (inactive) with OVCAR-3. The GI50 was 3.19 µM (inactive) in the assay on NCI-H460; 3.15 µM (inactive) in the assay on M14; 14.6 µM (inactive) in the assay with COLO 205; 3.2 µM (inactive) with SF-295; 2.67 µM (inactive) in the assay with SK-MEL-28; 3.14 µM (inactive) with MDA-N.

As for `C=C(C)C1=CCC[C@]2(C1)N=C(OC)[C@@H](C(C)C)N=C2OC`, the GI50 in the assay with UACC-62 was > 100 µM (inactive); with EKVX it was > 100 µM (inactive); with MDA-MB-231, > 100 µM (inactive); in the assay with SW-620, > 100 µM (inactive); in the assay with IGROV-1, 47.1 µM (inactive); in the assay with HOP-62, > 100 µM (inactive). Also, the GI50 in the assay with UACC-257 is > 100 µM (inactive); with DU-145, > 100 µM (inactive); with HL-60, 28.3 µM (inactive); in the assay on OVCAR-4, > 100 µM (inactive); in the assay on Malme-3M, > 100 µM (inactive); in the assay with OVCAR-3 it was > 100 µM (inactive). For the same molecule, the GI50 in the assay on NCI-H460 is > 100 µM (inactive); with M14 it was > 100 µM (inactive); in the assay on COLO 205, > 100 µM (inactive); in the assay with SF-295, > 100 µM (inactive); in the assay with SK-MEL-28 it was > 100 µM (inactive); in the assay with MDA-N, 32.2 µM (inactive).

`Cc1cccnc1N/C=C1\C(=O)NC(=O)N(C)C1=O`: the GI50 was > 100 µM (inactive) with UACC-62; 44 µM (inactive) with EKVX; > 100 µM (inactive) in the assay with SW-620; 64.1 µM (inactive) with IGROV-1; > 100 µM (inactive) in the assay on HOP-62; > 100 µM (inactive) in the assay on UACC-257. Also, the GI50 was > 100 µM (inactive) in the assay with DU-145; > 100 µM (inactive) with HL-60; > 100 µM (inactive) in the assay on OVCAR-4; 13 µM (inactive) in the assay on Malme-3M; 93.8 µM (inactive) in the assay with LOX IMVI; > 100 µM (inactive) with OVCAR-3. For the same molecule, the GI50 with NCI-H460, in the assay on M14, with COLO 205, in the assay with SF-295, with SK-MEL-28 and in the assay with MDA-N was > 100 µM (inactive) in each case.

In the case of `CC(C)NC(=O)OCc1c(COC(=O)NC(C)C)c(-c2ccc(Cl)c(Cl)c2)n2c1CCC2`, the GI50 in the assay on UACC-62 is 39.8 µM (inactive); in the assay with EKVX, 57.1 µM (inactive); in the assay on MDA-MB-231, 84.7 µM (inactive); in the assay with SW-620, 21 µM (inactive); in the assay with IGROV-1, 50 µM (inactive); with RXF 393 it was 31.3 µM (inactive). The GI50 was 38.5 µM (inactive) in the assay on HOP-62; 49.7 µM (inactive) with UACC-257; > 100 µM (inactive) with DU-145; 26.6 µM (inactive) in the assay on HL-60; > 66.5 µM (inactive) with OVCAR-4; 47.1 µM (inactive) in the assay on Malme-3M. In addition, the GI50 was 46.8 µM (inactive) with LOX IMVI; 54 µM (inactive) in the assay with OVCAR-3; 36.6 µM (inactive) with NCI-H460; 35.9 µM (inactive) with M14; 52.8 µM (inactive) in the assay on COLO 205; 48.1 µM (inactive) in the assay on SF-295. In the assay with SK-MEL-28, the GI50 was 65 µM (inactive).

As to `COC1(OC)CCCCCCCCC(OC)(OC)CCCCCCCC1`, the GI50 in the assay on UACC-62, in the assay on EKVX, in the assay on SW-620, in the assay on IGROV-1, in the assay with RXF 393 and in the assay with HOP-62 was > 100 µM (inactive) in each case. Further, the GI50 with UACC-257, in the assay with DU-145, with HL-60, in the assay on Malme-3M, in the assay on LOX IMVI and with OVCAR-3 was > 100 µM (inactive) each time. In addition, the GI50 with NCI-H460, in the assay on M14, with COLO 205, in the assay on SF-295, in the assay with SK-MEL-28 and in the assay with MDA-N was > 100 µM (inactive) each time.

On to `O=C(Nc1ccc(Cl)cc1)NS(=O)(=O)c1ccc2c(c1)CCC2` [SULOFENUR], for which the GI50 was 23.9 µM (inactive) in the assay on UACC-62; 36.5 µM (inactive) with EKVX; 35.3 µM (inactive) in the assay on SW-620; 12.3 µM (inactive) in the assay on IGROV-1; 27.9 µM (inactive) in the assay with RXF 393; 32.2 µM (inactive) with HOP-62. Moreover, the GI50 in the assay on UACC-257 is 50.7 µM (inactive); in the assay with DU-145, 24 µM (inactive); in the assay with HL-60, 2.4 µM (inactive); in the assay on OVCAR-4 it was 54.8 µM (inactive); in the assay on Malme-3M, 24.5 µM (inactive); with LOX IMVI it was 37.6 µM (inactive). The GI50 with OVCAR-3 was 24.3 µM (inactive); with NCI-H460 it was 24.4 µM (inactive); in the assay on M14, 37.9 µM (inactive); in the assay with COLO 205 it was 29.8 µM (inactive); in the assay on SF-295, 46.7 µM (inactive); with SK-MEL-28, 43.9 µM (inactive). The GI50 with MDA-N is 28 µM (inactive).

For the molecule `O=C(CBr)N1CCC2(CC1)SSC1(CCN(C(=O)CBr)CC1)S2`, the GI50 is 1.47 µM (inactive) with UACC-62; 2.33 µM (inactive) in the assay on MDA-MB-231; 0.332 µM (active) in the assay on SW-620; 1.9 µM (inactive) in the assay on HOP-62; 2.76 µM (inactive) with UACC-257; 1.59 µM (inactive) in the assay with HL-60. Moreover, the GI50 in the assay with OVCAR-4 is 2.02 µM (inactive); in the assay on LOX IMVI, 0.064 µM (active); in the assay with NCI-H460, 1.81 µM (inactive); in the assay with M14 it was 1.53 µM (inactive); in the assay with COLO 205 it was 0.368 µM (active); in the assay with SF-295 it was 1.94 µM (inactive). In addition, the GI50 in the assay on SK-MEL-28 was 2 µM (inactive); with MDA-N it was 1.31 µM (inactive).

For `CC(=O)Nc1ccc(NNc2cc(=O)n(C)c(=O)[nH]2)cc1`, the GI50 with EKVX is 17 µM (inactive); in the assay on MDA-MB-231, 12.1 µM (inactive); in the assay with SW-620, 2.98 µM (inactive); in the assay on IGROV-1, 14 µM (inactive); in the assay with HOP-62, 15.1 µM (inactive); in the assay on UACC-257 it was 13.5 µM (inactive). Besides, the GI50 in the assay on DU-145 is 16 µM (inactive); with HL-60, 2.95 µM (inactive); in the assay on OVCAR-4, 10.2 µM (inactive); in the assay on Malme-3M, 12.4 µM (inactive); with LOX IMVI, 2.56 µM (inactive); with OVCAR-3 it was 2.68 µM (inactive). The GI50 is 17.1 µM (inactive) in the assay on NCI-H460; 8.89 µM (inactive) in the assay with M14; 11.8 µM (inactive) with COLO 205; 15.8 µM (inactive) with SF-295; 11.9 µM (inactive) in the assay with SK-MEL-28; 11 µM (inactive) in the assay on MDA-N.
